According to ChEMBL document CHEMBL3871307, “Discovery of Chromane Propionic Acid Analogues as Selective Agonists of GPR120 with in Vivo Activity in Rodents” (ACS Med Chem Lett, 2017):
Calls of active or inactive are those of the source. The rule behind the calls is not given here.

Key:
[1] = Intrinsic clearance in mouse plasma at 2 mg/kg, iv or 30 mg/kg, po by LC/MS/MS analysis; format: ADME, organism-based; settings: in vivo
[2] = Terminal half life in rhesus monkey plasma at 0.5 mg/kg, iv or 1 mg/kg, po by LC/MS/MS analysis; format: ADME, organism-based, Macaca mulatta; settings: read-out: beta t1/2 (converted)
[3] = Volume of distribution at steady state in mouse plasma at 2 mg/kg, iv or 30 mg/kg, po by LC/MS/MS analysis; format: ADME, organism-based; settings: read-out: Vdss
[4] = Protein binding in mouse plasma at 2 mg/kg, iv or 30 mg/kg, po by LC/MS/MS analysis; format: ADME, organism-based; settings: read-out: PPB (converted)
[5] = Terminal half life in mouse plasma at 2 mg/kg, iv or 30 mg/kg, po by LC/MS/MS analysis; format: ADME, organism-based; settings: read-out: beta t1/2 (converted)
[6] = Oral bioavailability in mouse plasma at 30 mg/kg by LC/MS/MS analysis; format: ADME, organism-based
[7] = Plasma concentration in GPR120 knockout C57BL/6 transverse aortic constriction mouse at 150 mg/kg, po measured at 3 hrs; format: ADME, organism-based; settings: C57BL/6, mouse
[8] = molecular target: Free fatty acid receptor 1 (Mus musculus, UniProt Q76JU9); assay: Agonist activity at mouse GPR40 assessed as increase in IP1 accumulation after 60 mins by HTRF assay; format: functional
[9] = molecular target: Cytochrome P450 2D6 (Homo sapiens, UniProt P10635); assay: Inhibition of human CYP2D6; format: ADME
[10] = molecular target: T1, Free fatty acid receptor 4 (Mus musculus, UniProt Q7TMA4); assay: Agonist activity at mouse GPR120 expressed in CHOK1 cells assessed as increase in IP1 accumulation after 60 mins by HTRF assay; format: functional, cell-based, CHO-K1
T1 sequence (Q7TMA4 whole entry): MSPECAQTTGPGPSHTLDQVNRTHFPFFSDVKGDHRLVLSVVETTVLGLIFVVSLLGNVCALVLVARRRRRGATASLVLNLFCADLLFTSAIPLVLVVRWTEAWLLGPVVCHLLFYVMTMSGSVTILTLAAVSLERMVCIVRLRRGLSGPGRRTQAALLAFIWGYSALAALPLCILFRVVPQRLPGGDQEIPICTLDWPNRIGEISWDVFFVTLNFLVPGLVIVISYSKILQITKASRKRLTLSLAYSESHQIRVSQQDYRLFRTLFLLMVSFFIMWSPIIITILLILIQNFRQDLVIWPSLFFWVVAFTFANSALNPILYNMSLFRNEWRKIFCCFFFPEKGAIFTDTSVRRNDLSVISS

[11] = Intrinsic clearance in rat plasma at 0.1 mg/kg administered as iv casette dose by LC/MS/MS analysis; format: ADME, organism-based; settings: in vivo
[12] = Mean residence time in rhesus monkey plasma at 0.5 mg/kg, iv or 1 mg/kg, po by LC/MS/MS analysis; format: ADME, organism-based, Macaca mulatta
[13] = Mean residence time in mouse plasma at 2 mg/kg, iv or 30 mg/kg, po by LC/MS/MS analysis; format: ADME, organism-based
[14] = Clearance in rhesus monkey plasma at 0.5 mg/kg, iv or 1 mg/kg, po by LC/MS/MS analysis; format: ADME, organism-based, Macaca mulatta
[15] = Clearance in rat plasma at 1 mg/kg, iv or 2 mg/kg, po by LC/MS/MS analysis; format: ADME, organism-based
[16] = Oral bioavailability in rhesus monkey plasma at 1 mg/kg by LC/MS/MS analysis; format: ADME, organism-based, Macaca mulatta
[17] = molecular target: T1, Free fatty acid receptor 4; assay: Agonist activity at mouse GPR120 expressed in human U2OS cells assessed as beta-arrestin recruitment after 90 mins by luminescence assay; format: cell-based
[18] = Protein binding in rat plasma at 0.1 mg/kg administered as iv casette dose by LC/MS/MS analysis; format: ADME, organism-based; settings: read-out: PPB (converted)
[19] = Protein binding in rat plasma at 1 mg/kg, iv or 2 mg/kg, po by LC/MS/MS analysis; format: ADME, organism-based; settings: read-out: PPB (converted)
[20] = molecular target: Cytochrome P450 3A4 (Homo sapiens, UniProt P08684); assay: Inhibition of human CYP3A4; format: ADME
[21] = system: Mus musculus; assay: In vivo agonist activity at GPR120 in wild type C57BL/6 transverse aortic constriction mouse assessed as glucose lowering effect at 150 mg/kg, po via gavage pretreated for 60 mins followed by dextrose challenge measured up to 120 mins post glucose challenge by OGTT; format: functional, organism-based
[22] = Intrinsic clearance in rat plasma at 1 mg/kg, iv or 2 mg/kg, po by LC/MS/MS analysis; format: ADME, organism-based; settings: in vivo
[23] = AUC in mouse plasma at 2 mg/kg, iv by LC/MS/MS analysis; format: ADME, organism-based
[24] = AUC in rat plasma at 1 mg/kg, iv by LC/MS/MS analysis; format: ADME, organism-based
[25] = Mean residence time in rat plasma at 1 mg/kg, iv or 2 mg/kg, po by LC/MS/MS analysis; format: ADME, organism-based
[26] = Volume of distribution at steady state in rat plasma at 0.1 mg/kg administered as iv casette dose by LC/MS/MS analysis; format: ADME, organism-based; settings: read-out: Vdss
[27] = AUC in rhesus monkey plasma at 0.5 mg/kg, iv by LC/MS/MS analysis; format: ADME, organism-based, Macaca mulatta
[28] = molecular target: Sodium channel protein type 5 subunit alpha (Homo sapiens, UniProt Q14524); assay: Inhibition of Nav1.5 (unknown origin)
[29] = Clearance in rat plasma at 0.1 mg/kg administered as iv casette dose by LC/MS/MS analysis; format: ADME, organism-based
[30] = Protein binding in rhesus monkey plasma at 0.5 mg/kg, iv or 1 mg/kg, po by LC/MS/MS analysis; format: ADME, organism-based, Macaca mulatta; settings: read-out: PPB (converted)
[31] = molecular target: Voltage-dependent L-type calcium channel subunit alpha-1C (Homo sapiens, UniProt Q13936); assay: Inhibition of Cav1.2 (unknown origin)
[32] = Plasma concentration in C57BL/6 mouse oral glucose tolerance test at 3 mg/kg, po via gavage measured at 3 hrs
[33] = Plasma concentration in C57BL/6 transverse aortic constriction mouse at 30 mg/kg, po via gavage measured at 3 hrs; format: ADME, organism-based; settings: C57BL/6, mouse
[34] = Intrinsic clearance in rhesus monkey plasma at 0.5 mg/kg, iv or 1 mg/kg, po by LC/MS/MS analysis; format: ADME, organism-based, Macaca mulatta; settings: in vivo

Chain of Voltage-dependent L-type calcium channel subunit alpha-1C (Q13936 whole entry): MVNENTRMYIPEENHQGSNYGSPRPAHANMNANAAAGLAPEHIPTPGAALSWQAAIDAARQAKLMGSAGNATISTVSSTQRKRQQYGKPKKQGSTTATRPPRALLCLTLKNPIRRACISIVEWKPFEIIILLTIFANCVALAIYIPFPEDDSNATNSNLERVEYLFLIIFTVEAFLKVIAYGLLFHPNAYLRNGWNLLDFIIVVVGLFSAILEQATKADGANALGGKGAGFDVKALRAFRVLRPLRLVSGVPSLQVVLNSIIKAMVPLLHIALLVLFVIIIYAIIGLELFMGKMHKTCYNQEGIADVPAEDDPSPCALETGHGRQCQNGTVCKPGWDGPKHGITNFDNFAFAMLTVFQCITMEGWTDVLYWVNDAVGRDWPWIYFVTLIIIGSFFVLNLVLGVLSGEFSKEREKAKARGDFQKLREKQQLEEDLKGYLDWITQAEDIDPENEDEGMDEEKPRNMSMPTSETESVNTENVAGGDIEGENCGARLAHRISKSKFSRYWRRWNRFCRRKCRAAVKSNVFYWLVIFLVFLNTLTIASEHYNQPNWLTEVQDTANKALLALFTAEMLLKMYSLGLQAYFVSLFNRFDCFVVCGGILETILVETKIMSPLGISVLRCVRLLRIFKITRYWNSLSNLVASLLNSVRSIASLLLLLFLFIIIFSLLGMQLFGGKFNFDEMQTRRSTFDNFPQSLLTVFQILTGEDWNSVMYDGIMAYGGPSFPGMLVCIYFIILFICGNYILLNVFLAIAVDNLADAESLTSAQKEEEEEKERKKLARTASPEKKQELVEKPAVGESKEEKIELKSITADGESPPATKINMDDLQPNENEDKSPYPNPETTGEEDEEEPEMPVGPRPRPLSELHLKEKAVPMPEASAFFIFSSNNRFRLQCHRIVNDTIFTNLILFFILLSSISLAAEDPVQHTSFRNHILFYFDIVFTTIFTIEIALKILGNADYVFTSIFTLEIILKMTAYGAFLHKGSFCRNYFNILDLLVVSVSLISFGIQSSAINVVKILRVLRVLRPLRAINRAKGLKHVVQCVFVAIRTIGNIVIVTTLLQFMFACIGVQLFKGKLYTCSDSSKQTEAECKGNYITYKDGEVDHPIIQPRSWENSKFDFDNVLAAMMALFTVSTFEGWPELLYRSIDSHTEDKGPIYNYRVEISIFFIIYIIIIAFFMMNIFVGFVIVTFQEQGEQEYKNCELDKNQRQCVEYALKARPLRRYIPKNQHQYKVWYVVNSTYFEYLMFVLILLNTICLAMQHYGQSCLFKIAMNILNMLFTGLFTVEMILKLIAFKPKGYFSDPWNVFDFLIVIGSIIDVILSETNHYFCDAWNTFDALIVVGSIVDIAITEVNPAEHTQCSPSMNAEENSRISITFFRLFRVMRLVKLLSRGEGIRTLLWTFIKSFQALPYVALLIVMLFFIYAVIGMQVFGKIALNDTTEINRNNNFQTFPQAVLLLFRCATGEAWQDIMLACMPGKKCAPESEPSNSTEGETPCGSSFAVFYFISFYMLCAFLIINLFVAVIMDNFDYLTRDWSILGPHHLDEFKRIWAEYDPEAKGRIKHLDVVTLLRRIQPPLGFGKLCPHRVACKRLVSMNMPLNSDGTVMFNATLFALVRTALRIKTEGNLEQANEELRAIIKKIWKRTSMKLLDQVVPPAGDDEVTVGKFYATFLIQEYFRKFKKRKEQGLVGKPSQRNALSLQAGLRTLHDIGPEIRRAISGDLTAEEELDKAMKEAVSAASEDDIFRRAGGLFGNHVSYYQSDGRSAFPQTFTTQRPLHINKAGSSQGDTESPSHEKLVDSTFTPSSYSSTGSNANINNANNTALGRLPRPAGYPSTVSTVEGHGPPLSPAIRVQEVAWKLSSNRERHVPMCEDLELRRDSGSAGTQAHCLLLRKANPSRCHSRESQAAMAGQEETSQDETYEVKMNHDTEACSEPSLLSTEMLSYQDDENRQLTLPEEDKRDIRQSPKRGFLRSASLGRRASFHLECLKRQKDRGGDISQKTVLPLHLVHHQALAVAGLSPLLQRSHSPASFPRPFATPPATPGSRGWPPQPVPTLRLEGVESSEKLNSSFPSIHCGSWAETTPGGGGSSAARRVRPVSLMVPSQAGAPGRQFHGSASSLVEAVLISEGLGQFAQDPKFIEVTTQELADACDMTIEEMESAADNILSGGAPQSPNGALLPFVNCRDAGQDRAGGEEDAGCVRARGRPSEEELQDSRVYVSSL
Chain of Cytochrome P450 2D6 (P10635 whole entry): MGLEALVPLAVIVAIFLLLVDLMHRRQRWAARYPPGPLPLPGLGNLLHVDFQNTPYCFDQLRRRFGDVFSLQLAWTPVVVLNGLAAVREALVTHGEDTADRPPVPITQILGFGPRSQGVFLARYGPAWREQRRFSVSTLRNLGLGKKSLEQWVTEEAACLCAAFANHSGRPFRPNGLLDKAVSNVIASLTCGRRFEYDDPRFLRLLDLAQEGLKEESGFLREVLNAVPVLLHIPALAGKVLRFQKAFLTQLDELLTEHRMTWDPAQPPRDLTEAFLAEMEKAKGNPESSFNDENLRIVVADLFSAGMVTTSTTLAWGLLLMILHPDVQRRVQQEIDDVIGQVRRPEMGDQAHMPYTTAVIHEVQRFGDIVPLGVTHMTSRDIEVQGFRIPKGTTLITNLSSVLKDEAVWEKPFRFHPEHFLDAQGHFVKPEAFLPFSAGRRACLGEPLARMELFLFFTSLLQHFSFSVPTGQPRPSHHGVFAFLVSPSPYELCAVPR
Chain of Sodium channel protein type 5 subunit alpha (Q14524 whole entry): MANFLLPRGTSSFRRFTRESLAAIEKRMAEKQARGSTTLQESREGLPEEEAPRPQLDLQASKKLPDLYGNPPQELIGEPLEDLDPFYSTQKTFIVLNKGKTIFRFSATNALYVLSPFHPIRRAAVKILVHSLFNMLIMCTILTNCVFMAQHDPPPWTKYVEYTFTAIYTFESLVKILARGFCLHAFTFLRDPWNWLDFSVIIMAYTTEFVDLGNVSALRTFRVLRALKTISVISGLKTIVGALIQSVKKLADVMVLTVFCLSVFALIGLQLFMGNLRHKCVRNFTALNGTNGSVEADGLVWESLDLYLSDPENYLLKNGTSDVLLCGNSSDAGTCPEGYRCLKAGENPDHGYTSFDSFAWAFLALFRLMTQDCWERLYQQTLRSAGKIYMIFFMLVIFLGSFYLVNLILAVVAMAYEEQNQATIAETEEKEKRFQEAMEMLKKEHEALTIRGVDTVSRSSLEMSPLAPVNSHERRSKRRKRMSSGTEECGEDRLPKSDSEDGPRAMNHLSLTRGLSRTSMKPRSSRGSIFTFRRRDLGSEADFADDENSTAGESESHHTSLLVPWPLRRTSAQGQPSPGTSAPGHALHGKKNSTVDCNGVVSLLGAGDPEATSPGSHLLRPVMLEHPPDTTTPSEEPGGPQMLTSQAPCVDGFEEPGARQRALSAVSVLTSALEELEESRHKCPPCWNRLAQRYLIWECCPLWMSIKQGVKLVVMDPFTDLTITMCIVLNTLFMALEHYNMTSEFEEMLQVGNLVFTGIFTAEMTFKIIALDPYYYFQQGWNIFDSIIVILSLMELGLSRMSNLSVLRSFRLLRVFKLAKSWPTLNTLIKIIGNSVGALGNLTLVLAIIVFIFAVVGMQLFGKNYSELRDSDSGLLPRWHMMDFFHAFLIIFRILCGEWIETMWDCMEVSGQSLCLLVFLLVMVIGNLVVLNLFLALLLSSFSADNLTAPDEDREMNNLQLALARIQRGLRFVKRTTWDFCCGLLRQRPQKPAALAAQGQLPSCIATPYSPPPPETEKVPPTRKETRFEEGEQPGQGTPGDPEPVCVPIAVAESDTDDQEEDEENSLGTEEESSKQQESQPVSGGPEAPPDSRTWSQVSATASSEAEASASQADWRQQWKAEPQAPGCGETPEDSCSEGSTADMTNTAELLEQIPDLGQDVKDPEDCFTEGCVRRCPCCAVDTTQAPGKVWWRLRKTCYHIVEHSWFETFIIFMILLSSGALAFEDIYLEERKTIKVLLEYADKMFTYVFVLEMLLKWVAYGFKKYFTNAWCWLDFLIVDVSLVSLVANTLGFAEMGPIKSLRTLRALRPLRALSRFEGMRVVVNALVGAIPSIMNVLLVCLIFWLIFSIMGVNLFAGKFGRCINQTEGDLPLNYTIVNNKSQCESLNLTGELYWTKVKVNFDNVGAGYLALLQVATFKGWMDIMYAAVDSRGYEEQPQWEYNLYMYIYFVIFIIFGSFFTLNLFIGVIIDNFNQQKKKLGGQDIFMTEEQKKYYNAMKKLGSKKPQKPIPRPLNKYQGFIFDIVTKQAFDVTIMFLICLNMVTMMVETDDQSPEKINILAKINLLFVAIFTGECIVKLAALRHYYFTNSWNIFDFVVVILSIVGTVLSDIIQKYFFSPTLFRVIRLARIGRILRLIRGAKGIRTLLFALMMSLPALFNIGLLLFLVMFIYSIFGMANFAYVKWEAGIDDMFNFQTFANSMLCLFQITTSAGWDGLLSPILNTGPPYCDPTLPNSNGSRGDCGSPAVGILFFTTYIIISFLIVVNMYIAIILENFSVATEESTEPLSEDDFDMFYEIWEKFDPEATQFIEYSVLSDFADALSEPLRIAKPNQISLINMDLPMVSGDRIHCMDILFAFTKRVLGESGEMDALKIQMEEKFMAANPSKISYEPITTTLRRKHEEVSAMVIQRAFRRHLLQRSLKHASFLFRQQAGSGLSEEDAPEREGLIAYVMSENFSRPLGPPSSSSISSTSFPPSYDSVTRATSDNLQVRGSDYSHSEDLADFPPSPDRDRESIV
Chain of Free fatty acid receptor 1 (Q76JU9 whole entry): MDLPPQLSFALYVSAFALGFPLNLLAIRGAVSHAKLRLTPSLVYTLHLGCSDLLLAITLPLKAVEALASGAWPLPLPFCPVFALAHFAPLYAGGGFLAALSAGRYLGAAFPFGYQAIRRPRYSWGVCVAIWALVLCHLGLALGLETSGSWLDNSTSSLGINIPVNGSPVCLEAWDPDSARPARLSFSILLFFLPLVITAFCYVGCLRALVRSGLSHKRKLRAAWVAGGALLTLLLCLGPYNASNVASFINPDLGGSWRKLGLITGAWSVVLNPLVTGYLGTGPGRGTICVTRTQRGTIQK

CL [1]: 3400 mL/min/kg
half-life [2]: 9.8 h
Vd [3]: 1.4 L/kg
fraction unbound [4]: 0.0033
half-life [5]: 3 h
bioavailability [6]: 76%
concentration at 3 h [7]: 53.4 µM
EC50 [8]: > 10 µM
IC50 [9]: > 50 µM
EC50 [10]: 0.0064 µM
CL [11]: 560 mL/min/kg
MRT [12]: 13.5 h
MRT [13]: 2.4 h
clearance [14]: 0.33 mL/min/kg
clearance [15]: 1.1 mL/min/kg
bioavailability [16]: 82%
EC50 [17]: 0.0068 µM
fraction unbound [18]: 0.0024
fraction unbound [19]: 0.0024
IC50 [20]: > 50 µM
CL [22]: 470 mL/min/kg
AUC [23]: 8.1 µM·h
AUC [24]: 35.9 µM·h
MRT [25]: 4.6 h
Vd [26]: 0.24 L/kg
AUC [27]: 57.8 µM·h
clearance [29]: 1.3 mL/min/kg
fraction unbound [30]: 0.0022
concentration at 3 h [33]: 3.12 µM
CL [34]: 150 mL/min/kg
SMILES: CO[C@H]1C[C@H](Oc2cc(F)c(F)c(-c3ccc4c(c3)CC[C@H](CCC(=O)O)O4)n2)C1
Activity [21]: Active
IC50 [28]: 27 µM
IC50 [31]: 28 µM
concentration at 3 h [32]: 0.75 µM
